Data on one molecule can be found in publication PMC4492727 (Pharmacology Research & Perspectives, 2015).

The IC50 is the concentration at which inhibition is half-maximal. As usually defined, the aqueous solubility is the dissolved amount per volume that the medium holds.

For data set [1], the system named is MDCK II (MDR1) cells. It is filed as in vitro ADME, canine (cells expressing human P-gp). The conditions noted are these: 2.4 μmol/L telmisartan.
The next data set relates to P-gp. The conditions noted are these: read-out: IC50 as inhibitor of P-gp; ref Weiss et al. [2010]; cited from earlier work.
For data set [2], the system named is P-gp activity of the murine cell line P388/dx. The conditions noted are these: P388/dx cells; ref Weiss et al. [2010]; cited from earlier work.
Data set [3] concerns MDCK II cells transfected with the human MDR1 gene. The note with it: 5 μmol/L telmisartan, 30 min preincubation; ref Chang et al. ([2006]); cited from earlier work.
The conditions of data set [4]: cited from earlier work.
In data set [5] the test system is MDCK II (MDR1) cells. In words: Bidirectional transepithelial transport across MDCK II.

≈ marks a conversion by molar mass, not a printed value. Read-outs that look alike come from different tables or passages of the source.

Regarding `CCCc1nc2c(C)cc(-c3nc4ccccc4n3C)cc2n1Cc1ccc(-c2ccccc2C(=O)O)cc1` [telmisartan], in the data set on MDCK II (MDR1) cells [1], the “effect on amount of [3H]-digoxin present in cells and filter” value was “no difference”; the “increase in concentration of verapamil in cells compared to untreated control” value is given as around 26%. For the same molecule, the IC50 with P-gp is 380 nM. The “P-gp inhibitory effect, calcein AM uptake” value in data set [2] is recorded as “inhibited”. In addition, the “inhibition of the efflux transport of digoxin” value in data set [3] is reported as “able to inhibit”. In data set [4] (ref Park et al. [2013]), the aqueous solubility is 0.45 µM (≈ 0.232 µg/mL). In addition, the aqueous solubility in data set [4] (ref Tran et al. [2008]) is 0.17 µM (≈ 0.0875 µg/mL). For the same molecule, in the data set on MDCK II (MDR1) cells [5] (2.4 μmol/L telmisartan), the “effect on transepithelial efflux of [3H]-verapamil” value is reported as “minor inhibition” and the “effect on transepithelial transport of [3H]-digoxin” value is on record as “does not affect”. Also, in the data set on MDCK II (MDR1) cells [5] (low concentrations of telmisartan, data not shown), the “effect on verapamil transport in pilot experiments” value was “no effects”.
